Measured values from patent US20110256510A1, “Use of Quaternary Ammonium Compounds to Inhibit Endogenous MMPs in Tooth Dentin” (priority 2009, published 2011).
Where “and” joins values, the source holds several entries; their conditions need not be identical. Identical values can stand only once. Counter-ions that a name gives are not always drawn.

How the values were obtained:
[1] = tested on: Clostridium histolyticum collagenase; assay: Bacterial collagenase-based anti-MMP screening assay (SDS-PAGE gel analysis of undegraded Type I collagen); assay type: biochemical
Description: Bacterial collagenase-based anti-MMP screening assay: This assay employs purified Clostridium histolyticum collagenase (hereinafter “collagenase”) as the test enzyme for screening anti-MMP activity of compounds of interest. The screening assay involves incubating a constant concentration of collagenase with Type I soluble collagen and quantifying the amount of Type I collagen that remains undegraded in the presence of collagenase in the presence and absence of different test compounds. The basic assay composition comprises 50 μg of Type I collagen (e.g., human placental; Cat. # C7521; Sigma-Aldrich, St. Louis, […]., USA) and 50 μg of collagenase (e.g., Clostridium histolyticum E.C. 3.4.24.3; Cat. No. C7667 (1909 CDU/mg solid); Sigma-Aldrich, St. Louis, […]., USA) in a physiological buffer (pH 7.4) containing zinc ions, with a total reaction volume of 60 μl. […] The buffer composition used comprises […] Tris Base, 200 mM NaCl, 10 mM CaCl2, 0.05 mM ZnCl2, 3 mM NaN3 adjusted to […] with 1 N HCl.
Compounds of interest are added to the reaction system described above to assess their ability to inhibit collagenase degradation of collagen. As test compounds vary with respect to molecular weight and affinity for the dentin matrix, a range of concentrations (wt %) for each compound may be added to the basic reaction. Test compounds may be diluted approximately 1:5 in the final reaction volume by the subsequent sequential addition of solutions containing collagenase, collagen, and buffer.
The enzyme and the collagen are kept on ice. Twenty μL of enzyme (concentration of 5 μg protein/μL×20 μL=100 μg of enzyme) protein was incubated with 5 μL of loading buffer and 20 μL of inhibitor. The reaction was started by adding 20 μL of type I collagen (5 μg/μL×20=100 μg collagen). Thus, the total volume was 65 μL. The total protein was 100 μg enzyme protein plus 100 μg of collagen=200 μg protein in 65 μL. Thirty μL of that mixture was applied to the gel (30/65×200 μg protein=92.3 μg protein. Because the total volume was 65 μL and the inhibitor volume was 20 μL, the inhibitor was diluted 3.25-fold.
Following assembly, reactions are incubated for one hour at 37° C. The incubation reactions were terminated by submerging the tube in boiling water for 3 min. After termination, 30 μL of each reaction assay containing 92 μg of total protein is loaded onto a 7.5% SDS-PAGE polyacrylamide gel (BioRad, Hercules, Calif.) and subjected to electrophoresis at 200 V for 60 min. SDS-PAGE gels are routinely run with samples and various controls in the following order. The nature of the controls is further described below. Controls include collagenase alone (lane 1); collagen alone (lane 2); and collagen mixed with collagenase (lane 3). Assay reactions containing collagen mixed with collagenase plus various concentrations of the test collagenase inhibitor compounds are then loaded on the gel starting with lane 4 (loaded in order of decreasing compound concentration).
Following electrophoresis of the samples, the gel is stained in 0.25% Coomassie Brilliant Blue overnight and destained for 8 hrs in water prior to imaging. After destaining, the gels are digitally scanned to permit quantification of the amount of undegraded collagen present in each reaction, relative to the collagen standard in lane 2.
With regards to the controls, both Type I collagen and collagenase are proteins too large to migrate very far into the SDS-PAGE gel.

human recombinant MMP-9 = biological target: T1, human recombinant MMP-9 (Homo sapiens, UniProt P14780); assay: Human MMP-9-based anti-MMP screening assay (Sensolyte Generic MMP colorimetric kit); assay type: biochemical; settings: soluble human MMP-9
T1 construct: purchased AnaSpec, Inc. 72009
Description: Human MMP-9-based anti-MMP screening assay: This assay employed purified human recombinant MMP-9 (Cat. No. 72009) and the Sensolyte Generic MMP colorimetric assay kit (Cat. No. 72095) from AnaSpec, Inc. (San Jose, Calif., USA) for screening anti-MMP activity of compounds of interest. This assay involves incubating a constant concentration of human MMP-9 with a proprietary thiopeptide substrate and quantifying the amount of substrate cleaved by the […] in the presence and absence of different test compounds. Cleavage of the proprietary thiopeptide substrate is quantitated by evaluating color production. Reactions may be assembled in a 96-well plate. After incubation for 30 minutes at 37° C., reactions are stopped and absorption measured at 412 nm using a 96-well plate reader synergy HT (BioTek Instruments, Inc., Winooski, Vt., USA).

T1 sequence (P14780 94-707): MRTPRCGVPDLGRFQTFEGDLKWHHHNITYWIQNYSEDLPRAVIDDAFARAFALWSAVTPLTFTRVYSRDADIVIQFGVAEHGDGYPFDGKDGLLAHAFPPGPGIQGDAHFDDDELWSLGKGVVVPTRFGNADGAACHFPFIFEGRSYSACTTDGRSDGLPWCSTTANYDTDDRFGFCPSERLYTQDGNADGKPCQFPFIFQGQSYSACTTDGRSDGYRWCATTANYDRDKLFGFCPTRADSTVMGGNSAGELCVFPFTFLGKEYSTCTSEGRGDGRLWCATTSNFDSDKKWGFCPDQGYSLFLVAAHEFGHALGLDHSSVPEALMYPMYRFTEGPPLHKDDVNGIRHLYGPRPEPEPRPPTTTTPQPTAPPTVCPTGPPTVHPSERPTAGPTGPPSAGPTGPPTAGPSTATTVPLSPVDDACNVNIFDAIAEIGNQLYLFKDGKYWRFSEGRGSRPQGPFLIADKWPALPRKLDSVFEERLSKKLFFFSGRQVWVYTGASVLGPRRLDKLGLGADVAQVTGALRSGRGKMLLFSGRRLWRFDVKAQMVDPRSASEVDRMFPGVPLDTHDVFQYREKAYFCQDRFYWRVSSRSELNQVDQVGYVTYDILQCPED

`C=CC(=O)OCC[N+](C)(C)C.[Cl-]` [ATA, 2-Acryloxyethyltrimethylammonium chloride] was tested, and the “COLLAGENASE INHIBITION (%)” value ([1]; inhibitor 0.5 wt %) was 57%, the “COLLAGENASE INHIBITION (%)” value ([1]; inhibitor 1 wt %) was 55% and the “COLLAGENASE INHIBITION (%)” value ([1]; inhibitor 4 wt %) was 44%. The “COLLAGENASE INHIBITION (%)” value ([1]; inhibitor 8 wt %) was 49%, the “COLLAGENASE INHIBITION (%)” value ([1]; inhibitor 16 wt %) was 73% and the “% MMP ACTIVITY INHIBITION (t = 30 minutes)” value (“% MMP ACTIVITY INHIBITION” for short) (human recombinant MMP-9; inhibitor 10 wt %) was 79%. The “% MMP ACTIVITY INHIBITION” value (human recombinant MMP-9; inhibitor 24 wt %) was 82%.
For `CC(=O)O.CC(=O)O.NC(=N\CCCCCC/N=C(N)/N=C(\N)Nc1ccc(Cl)cc1)/N=C(\N)Nc1ccc(Cl)cc1` [Chlorhexidine diacetate, chlorhexidine diacetate, reference compound], the “COLLAGENASE INHIBITION (%)” value ([1]; inhibitor 0.02 wt %) was 1%, the “COLLAGENASE INHIBITION (%)” value ([1]; inhibitor 0.02 wt %, listed as CHX) was “did not inhibit collagenase” and the “COLLAGENASE INHIBITION (%)” value ([1]; inhibitor 0.2 wt %) was 74%. The “COLLAGENASE INHIBITION (%)” value ([1]; inhibitor 0.2 wt %, listed as CHX) was 69%.
In the case of `C=CC[N+](C)(C)CC=C.[Cl-]` [DDAC, Diallyldimethylammonium chloride], the “COLLAGENASE INHIBITION (%)” value ([1]; inhibitor 0.5 wt %) is reported as 50%, the “COLLAGENASE INHIBITION (%)” value ([1]; inhibitor 1 wt %) is reported as 56% and the “COLLAGENASE INHIBITION (%)” value ([1]; inhibitor 3 wt %) is reported as 59%. The “COLLAGENASE INHIBITION (%)” value ([1]; inhibitor 6 wt %) was 66%, the “COLLAGENASE INHIBITION (%)” value ([1]; inhibitor 12 wt %) was 73% and the “% MMP ACTIVITY INHIBITION” value (human recombinant MMP-9; inhibitor 10 wt %) was 7%. For the same molecule, the “% MMP ACTIVITY INHIBITION” value (human recombinant MMP-9; inhibitor 24 wt %) was 16%.
With `O=C(O)CN(CCN(CC(=O)O)CC(=O)O)CC(=O)O` [EDTA, reference compound] the inhibited collagenase ([1]; inhibitor 10 mM (control lane)) was 100% and 87%.
`C=C(C)C(=O)NCCC[N+](C)(C)C.[Cl-]` [MAPTAC, [3-(Methacryloylamino)propyl]trimethylammonium chloride] was tested, and the “COLLAGENASE INHIBITION (%)” value ([1]; inhibitor 0.1 wt %) was 41%, the “COLLAGENASE INHIBITION (%)” value ([1]; inhibitor 0.5 wt %) was 39% and the “COLLAGENASE INHIBITION (%)” value ([1]; inhibitor 1 wt %) was 53%. For the same molecule, the “COLLAGENASE INHIBITION (%)” value ([1]; inhibitor 5 wt %) was 53%, the “COLLAGENASE INHIBITION (%)” value ([1]; inhibitor 10 wt %) was 55% and the “% MMP ACTIVITY INHIBITION” value (human recombinant MMP-9; inhibitor 10 wt %) was 6%. The “% MMP ACTIVITY INHIBITION” value (human recombinant MMP-9; inhibitor 24 wt %) was 17%.
For `C=C(C)C(=O)OCC[N+](C)(C)C` [MCMS, 2-[(Methacryloyloxy)ethyl]trimethylammonium methyl sulfate], the “COLLAGENASE INHIBITION (%)” value ([1]; inhibitor 0.5 wt %) was 73%, the “COLLAGENASE INHIBITION (%)” value ([1]; inhibitor 1 wt %) was 70% and the “COLLAGENASE INHIBITION (%)” value ([1]; inhibitor 4 wt %) was 65%. The “COLLAGENASE INHIBITION (%)” value ([1]; inhibitor 8 wt %) was 62%, the “COLLAGENASE INHIBITION (%)” value ([1]; inhibitor 16 wt %) was 87% and the “% MMP ACTIVITY INHIBITION” value (human recombinant MMP-9; inhibitor 10 wt %) was 55%. For the same molecule, the “% MMP ACTIVITY INHIBITION” value (human recombinant MMP-9; inhibitor 24 wt %) was 84%.
In the case of `C=C(C)C(=O)OCC[N+](C)(C)C.[Cl-]` [METMAC, [2-(Methacryloyloxy)ethyl]trimethylammonium chloride], the “COLLAGENASE INHIBITION (%)” value ([1]; inhibitor 1.3 wt %) is reported as 39%, the “COLLAGENASE INHIBITION (%)” value ([1]; inhibitor 6.4 wt %) is reported as 56% and the inhibited collagenase ([1]; inhibitor 12.85%) is reported as 69%. For the same molecule, the “COLLAGENASE INHIBITION (%)” value ([1]; inhibitor 12.9 wt %) was 69%, the “COLLAGENASE INHIBITION (%)” value ([1]; inhibitor 25.7 wt %) was 100% and the “% MMP ACTIVITY INHIBITION” value (human recombinant MMP-9; inhibitor 10 wt %) was 42%. The “% MMP ACTIVITY INHIBITION” value (human recombinant MMP-9; inhibitor 24 wt %) was 71%.
With `Cc1c(OCC(O)C[N+](C)(C)C)cc2c(=O)c3ccccc3sc2c1C.[Cl-]` (stereo not drawn) [OTX, [3-(3,4-dimethyl-9-oxo-9H-thioxanthen-2-yloxy)-2-hydroxypropyl] trimethyl ammonium chloride] the “COLLAGENASE INHIBITION (%)” value ([1]; inhibitor 0.1 wt %) was 57% and the “COLLAGENASE INHIBITION (%)” value ([1]; inhibitor 0.2 wt %) was 86%.
For `CCCCCCCCCCCCCCCC[N+](C)(C)C.[Br-]` [hexadecyl trimethyl ammonium bromide, reference compound], the “inhibitory activity against collagenase” value ([1]; inhibitor 0.15% in ethanol) was “no inhibitory activity”.
In the case of “benzalkonium chloride [reference compound]”, the “COLLAGENASE INHIBITION (%)” value ([1]; inhibitor 10 wt %) is reported as “no inhibitory activity”.
With “pyridinium tribromide [reference compound]” the “COLLAGENASE INHIBITION (%)” value ([1]; inhibitor 1 wt %) was “no inhibitory activity”.
